# Experimental data: the METLIN SMRT retention time set (Domingo-Almenara et al. 2019)
# Test: gradient 5% acetonitrile 3 min, to 50% in 2 min, to 85% in 15 min, held 3 min, 100 µL/min
# Conditions: column: Zorbax Extend-C18 2.1 x 50 mm; eluents: water / acetonitrile, 0.1% formic acid
# Method in brief: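 Mixtures of ~100 pure standards were chromatographed on a Zorbax Extend-C18 column (2.1 × 50 mm, 1.8 μm) at 100 μL/min using water and acetonitrile, each with 0.1% formic acid. Detection used a quadrupole time-of-flight mass spectrometer in positive and negative ionization mode, and data collection spanned 3 months. Retention time was obtained from adduct peaks picked computationally and each checked manually.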
row,RP-LC retention time [s],Compound
1,642,Cc1nn(-c2ccccc2)c2ccn(CC(=O)N3CCN(c4ccccc4Cl)CC3)c(=O)c12
2,822,Cc1ccc(Cn2c(=O)n(CCNC(=O)c3cccn3C)c3ncccc32)cc1
3,994,Fc1ccc(Cn2cc(-c3noc(-c4ccccc4)n3)nn2)cc1
4,999,CCn1cc(C2=CCN(C(=O)Nc3cc(Cl)ccc3C)CC2)c2cccnc21
5,885,CCc1ccc(N(CC)C(=O)Cn2cnc3nc4c(cc3c2=O)CCCC4)cc1
6,717,CN1CC(=O)N(CC(=O)NC2CCCCCCC2)c2ccccc2C1=O
7,612,CCc1nnc(-c2ccc3ccn(CC(=O)Nc4ccc(CN5CCN(CC)CC5)cc4)c3c2)o1
8,865,Cc1nc(-c2ccccc2)cc2nn(CC(=O)NC3CCCC3)c(=O)n12
9,795,Cc1ccc(F)cc1S(=O)(=O)N1CC(F)(F)C[C@H]1CN1CCc2ccccc2C1
10,912,O=C(CCC(=O)N1CCOc2ccccc21)Nc1c(F)c(F)c(F)c(F)c1F
11,880,Cc1ccccc1-c1noc(Cn2ccn(-c3ccccc3C)c(=O)c2=O)n1
12,1180,COc1ccc(Cn2c(=O)c3sccc3n(Cc3nc(-c4ccc(C)c(C)c4)no3)c2=O)cc1
13,758,COc1ccc(C2C(C(=O)NCc3ccco3)c3cc(OC)c(OC)cc3C(=O)N2C)cc1 (centres undefined)
14,812,COC(=O)c1cc(OCC(=O)Nc2ccc(OC)c(Cl)c2)c2ccccc2n1
15,1010,CCCOc1ccc(C(=O)N(Cc2ccc(Br)o2)C2CCS(=O)(=O)C2)cc1 (centres undefined)
16,615,Cc1ccc(C(=O)N2C[C@@H]3C[C@H]2C[C@@H]3NS(=O)(=O)c2ccccc2)cn1
17,1040,Cc1ccc(S(=O)(=O)N2CCCC2)cc1-c1nnc(-c2ccc(F)cc2)o1
18,605,Cc1nc2ccn(Cc3cccnc3)c(=O)c2cc1C(=O)NCCC(C)C
19,652,COc1ccccc1-c1nnc(NC(=O)C2CC(=O)N(c3ccc(F)cc3)C2)o1 (centres undefined)
20,879,CCc1onc(C)c1C1CCCN1C(=O)Nc1ccc(C)c(F)c1 (centres undefined)
21,794,CCc1noc(NC(C)=O)c1-c1ccc(OC)c(S(=O)(=O)Nc2ccc(F)cc2F)c1
22,706,COc1cc(OC)c(NC(=O)NCC(c2cccnc2)c2c[nH]c3ccccc23)cc1Cl (centres undefined)
23,845,CC(C)c1cc(C(=O)Nc2ccccc2)nn1C1CCS(=O)(=O)C1 (centres undefined)
24,758,Cc1oc(C2CCN(S(=O)(=O)c3ccccc3)CC2)nc1C(=O)N1CCOCC1
25,984,CCOc1ccc2ncc(C#N)c(N3CCC(C(=O)Nc4ccccc4OCC)CC3)c2c1
26,590,C(=C\c1ccccn1)/c1ccccn1
27,945,CC1CCc2onc(C(=O)N(CCC#N)c3ccccc3)c2C1 (centres undefined)

row,RP-LC retention time [s],Compound
1,768,CCC(=O)N1CCc2cc(N3CC(C(=O)Nc4cc(C)ccc4F)CC3=O)ccc21 (centres undefined)
2,759,CCn1cc(C2=CCN(C(=O)Nc3ccc(OC)c(OC)c3)CC2)c2cccnc21
3,741,Cc1cccc(Nc2c(-c3ccccc3)nc3nc(C)cc(C)n23)c1
4,1250,CCCNC(=O)C1CCCN(c2nc3ccsc3c(=O)n2-c2ccc(C)cc2)C1 (centres undefined)
5,744,Cc1cccc(C)c1NC(=O)Cn1nc(N2CCOCC2)c2ccccc2c1=O
6,882,COc1ccc(CN2CC3(CCN(S(=O)(=O)Cc4ccccc4)CC3)C2=O)cc1
7,917,Cc1nc(-c2noc(-c3ccccc3)n2)cn1CC(=O)Nc1ccc(F)c(Cl)c1
8,805,CS(=O)(=O)Nc1ccc(-c2noc(CN3C(=O)COc4ccccc43)n2)cc1
9,868,CCC(C)NC(=O)Cn1nc2c3cc(-c4ccc(Cl)cc4)nn3ccn2c1=O (centres undefined)
10,584,Cc1noc(C)c1CC(=O)N1CCOc2ccc(N(C)C)cc2C1
11,836,O=C(NC1CCCCCC1)C1CCN(S(=O)(=O)c2ccc(-c3noc(C4CC4)n3)cc2)CC1
12,824,CNC(=O)C1CCN(c2nc3ccc(-c4ccc(F)cc4)nc3s2)CC1
13,619,CN1C(=O)c2cccnc2Sc2cc(NC(=O)C3CCCO3)ccc21 (centres undefined)
14,816,COc1ccc(-c2noc(C3CC(=O)N(c4ccc5c(c4)OCO5)C3)n2)c(OC)c1 (centres undefined)
15,1000,COc1cc(OC)cc(-c2nc(-c3cn(Cc4ccccc4)nn3)no2)c1
16,1000,O=c1n(Cc2ccc(Cl)cc2)nc2ccc(S(=O)(=O)N3CCCCC3)cn12
17,738,Cc1cccc(-n2c(N)cc(=O)nc2SCC(=O)Nc2nc(-c3ccccc3)cs2)c1
18,700,COc1ccc(OC)c(CNC(=O)Cc2nnc(-c3cccs3)o2)c1
19,851,CCc1nc2c(NC(=O)c3cc(F)cc(F)c3)cccn2n1
20,778,CC(=O)Nc1ccc2c(c1)CN(C(=O)c1ccc(C)cc1C)C(C(=O)N(C)C)C2 (centres undefined)
21,907,Cc1c(S(=O)(=O)NC2CCCc3ccccc32)cc(C(=O)N2CCCCC2)n1C (centres undefined)
22,776,O=S(=O)(NC1CCN(Cc2ccccc2)CC1)c1cc(-c2cc(C(F)(F)F)on2)cs1
23,1470,CCc1ccc(-c2nc(-c3ccc(-n4cccn4)nc3)no2)cc1
24,852,O=P(O)(O)c1cc(-c2ccccc2)oc1-c1ccccc1
25,1110,CN(C)c1cccc(-c2nc(C3CC(=O)N(c4ccc(Cl)cc4)C3)no2)c1 (centres undefined)
26,714,CC(C)n1c(=O)c(NCc2ccccc2C(F)(F)F)nc2ccncc21

# The remaining lines, values behind:
row,Compound,RP-LC retention time [s]
1,COc1ccc(N2C=C(C(=O)N3CCOCC3)S(=O)(=O)c3ccc(F)cc32)cc1OC,729
2,Cc1ccc(C2c3cc(OCC(=O)N4CCCC4)ccc3CCN2C(=O)C2CC2)cc1 (centres undefined),824
3,COCCN1C(=O)[C@H]2CN(Cc3ccc(OC)c(Br)c3)C[C@H]2C1=O,616
4,O=C(NCCN1CCCCC1)c1cc2n(n1)CCCN(Cc1ccc(Cl)cc1)C2=O,642
5,Cc1ccsc1C(=O)Nc1cccn2nc(C(C)C)nc12,986
6,CCOC(=O)C1=C(CN2CCN(C3CCCCC3)CC2)NC(=O)NC1c1ccccc1 (centres undefined),658
7,CCCOc1nn(CCC)cc1C(=O)Nc1nccs1,865
8,CN1C[C@@H](NS(=O)(=O)N(C)C)C[C@@H]2c3cccc4c3c(cn4C)C[C@H]21,698
9,Cc1nn(CCCC(=O)N2CCN(c3ccccn3)CC2)c(=O)c2noc(C)c12,580
10,CN(C)c1nccnc1OC1CCN(C(=O)C2CCCCC2)C1 (centres undefined),765
11,COCc1noc([C@@H]2CC(F)(F)CN2C(=O)c2cn(C)cn2)n1,610
12,O=C(CSc1cc(-n2cccn2)ncn1)Nc1cc(Cl)ccc1Cl,1090
13,O=C([C@@H]1C[C@H](F)CN1C(=O)NCc1ccco1)N1CCCCC1,631
14,O=C(c1ccsc1)N1CC(F)(F)C[C@H]1COc1ccc2c(c1)CCC2,1150
15,CCCN(CCc1cccs1)C1CCc2c(O)cccc2C1 (centres undefined),757
16,O=[N+]([O-])c1cc(F)c2cccnc2c1O,773
17,COc1ccc(CCNC(=O)Cn2cnc(C)cc2=O)cc1OC,574
18,C[C@@]1(O)CCN(Cc2cccc(C#N)c2)C[C@H]1N1CCCC1,541

row,Compound,RP-LC retention time [s]
1,CCn1cc(C(=O)NCc2ccc(Br)cc2)c2cccnc21,836
2,Cc1ccc(NC(=O)N2CCN(C(=O)N3C[C@H]4C[C@H](C3)[C@H]3CCCC(=O)N3C4)CC2)cc1C,698
3,O=C1CS(=O)C2(CCNCC2)N1Cc1cccc(F)c1 (centres undefined),566
4,COCCn1cc(CC(=O)NC2CCCCC2)c2cccnc21,700
5,CC(C)CCC(=O)N1CCN(c2nc3c(s2)CN(C)CC3)CC1,597
6,CC(C)(C[C@@](O)(Cc1cc2ccncc2[nH]1)C(F)(F)F)c1cc(F)ccc1O,790
7,CC(C)n1cnc2cc(CNC(=O)c3ccc(F)cc3F)ccc21,623
8,CCn1ccc2c(cc(C(=O)Nc3cc(OC)ccc3OC)n2C)c1=O,746
9,Cn1c(=O)n(C)c2cc(CNC(C)(C)CC(C)(C)C)ccc21,624
10,CCNC(=O)c1cn(-c2ccc(NC(=O)CC(C)C)cn2)cn1,658
11,O=C(NCc1cc(F)cc(F)c1)c1ccc(NC(=O)C2CCC2)cc1N1CCOCC1,871
12,Cc1nn(-c2ccccc2)c(C)c1S(=O)(=O)N1CCC(C(=O)N2CCCCCC2)CC1,912
13,Cc1ccc(CN2CC(CO)C3(CCNCC3)C2)cc1C (centres undefined),551
14,Cc1nn(-c2nc(CC(=O)N3CCCCC3)cs2)c(C)c1Cl,1050
15,O=C1/C(=C\c2ccc(O)c(O)c2)Oc2cc(O)ccc21,710
16,COc1cc(NC(=O)NCCc2nc3cccnc3n2C2CCCCC2)cc(OC)c1OC,693
17,O=C([C@@H]1C[C@H](Oc2ccccc2)CN1C(=O)CCc1nc2ccccc2s1)N1CCCC1,815
18,CCC(CC)C(=O)N1CCC2(CC1)CN(C)CC2c1nc(-c2ccncc2)n[nH]1 (centres undefined),565
